Experimental data reported in patent US20060193902A1, “Pharmaceutical compositions containing active agents having a lactone group and transition metal ions” (Celator Pharmaceuticals, Inc., priority 2003, published 2006).

Columns and labels:
[1] = tested on: DNA; conditions: copper(II) complex, long-wave UV light; CuSO4 and drug 10 μM; cited from earlier work
[2] = Lactone/carboxy ratio of irinotecan in buffers with or without copper sulphate, by HPLC (Example 2); assay type: physicochemical; conditions: presence of CuSO4, pH 7.5
[3] = Thin layer chromatography for ring closed lactone and ring open carboxylate forms of irinotecan (Example 5); assay type: physicochemical; conditions: HEPES buffered saline, acidic conditions, 30 minutes; lactone form
Experimental: Three sets of liposomal formulations of irinotecan were prepared as previously described. […] Any unencapsulated irinotecan was removed by column chromatography. […] The third formulation (B) contained irinotecan and floxuridine in the final composition. In this formulation the liposomes were prepared in the presence of floxuridine and then unencapsulated drug was removed by chromatography. […] In all cases the external pH was adjusted to match the internal liposomal pH prior to irinotecan loading.
Liposomal formulations of irinotecan were first analyzed for ring closed lactone and ring open carboxylate forms of the drug by thin layer chromatography. A set of standards were first prepared and used as a reference for the liposomal formulations. […] The TLC plates were dried overnight at room temperature and then run in a second solvent system composed of butanol:acetic acid:water:acetone (4:2:1:1). […] As the pH of the solution increased, the presence of the carboxylate band appears.
The plates were run in the same solvent systems and visualized by UV light.

[4] = 3 hours of incubation in human blood; cited from earlier work

Row | irinotecan remaining in the lactone form ([2]; 4 hours) [%] | irinotecan present in the ring-closed, lactone form ([2]; 24 hours) [%] | irinotecan species seen by TLC in aqueous standards [3] | Compound | DNA cleavage [1] [%] | lactone ring present [4] [%]
1 | – | – | – | CC[C@@]1(O)C(=O)OCc2c1cc1n(c2=O)Cc2cc3cc(O)ccc3nc2-1 [10-hydroxycamptothecin] | 1.7 | –
2 | – | – | – | CC[C@H]1C(=O)OCc2c1cc1n(c2=O)Cc2cc3ccccc3nc2-1 [20-deoxycamptothecin] | 28 | –
3 | 56.39 | 58.66 | dominant species | CCc1c2c(nc3ccc(OC(=O)N4CCC(N5CCCCC5)CC4)cc13)-c1cc3c(c(=O)n1C2)COC(=O)[C@]3(O)CC [Irinotecan, irinotecan] | – | –
4 | – | – | – | CC[C@@]1(O)C(=O)OCc2c1cc1n(c2=O)Cc2cc3ccccc3nc2-1 [camptothecin] | 51 | 5
